Experimental data from PubChem BioAssay (NCI).
“And” between values parts separate entries of the source, which are not always exact repeats. Identical values can stand only once.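 Growth conditions: 96-well plates. Treatment: test compound, 48 hours, 5 concentrations. Analysis: linear interpolation between bracketing concentrations; unreached endpoints set to highest concentration. Abbreviation: GI50, concentration required for 50% inhibition of growth. Definition used: TGI = concentration required for complete inhibition of growth.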

How the values were obtained:
Test in all cases: NCI tumour cell line growth inhibition, 48 h
NCI-H226 lung = tested on: NCI-H226 lung
SK-MEL-5 melanoma = tested on: SK-MEL-5 melanoma
HCC-2998 colon = tested on: HCC-2998 colon
NCI-H23 lung = tested on: NCI-H23 lung
LOX IMVI melanoma = tested on: LOX IMVI melanoma
IGROV1 ovarian = tested on: IGROV1 ovarian
UO-31 renal = tested on: UO-31 renal
SNB-75 CNS = tested on: SNB-75 CNS
OVCAR-3 ovarian = tested on: OVCAR-3 ovarian
A498 renal = tested on: A498 renal

Structure (SMILES)	GI50 (NCI-H226 lung)	TGI (NCI-H226 lung)	GI50 (SK-MEL-5 melanoma)	TGI (SK-MEL-5 melanoma)	GI50 (HCC-2998 colon)	TGI (HCC-2998 colon)	GI50 (NCI-H23 lung)	TGI (NCI-H23 lung)	GI50 (LOX IMVI melanoma)	TGI (LOX IMVI melanoma)	GI50 (IGROV1 ovarian)	TGI (IGROV1 ovarian)	GI50 (UO-31 renal)	TGI (UO-31 renal)	GI50 (SNB-75 CNS)	TGI (SNB-75 CNS)	GI50 (OVCAR-3 ovarian)	TGI (OVCAR-3 ovarian)	GI50 (A498 renal)	TGI (A498 renal)
O=C(NCc1ccc(Cn2c(=O)sn(-c3ccccc3)c2=O)cc1)OCc1ccc2cccc(O)c2n1	1.27 µM	2.77 µM	1.6 µM	2.97 µM	1.81 µM	3.51 µM	1.46 µM	3.06 µM	0.273 µM	0.955 µM	0.596 µM	1.96 µM	0.571 µM	1.92 µM	0.783 µM	2.08 µM	0.363 µM	1.36 µM	0.382 µM	1.89 µM
NNCCc1ccc(NC(=O)CCCc2ccc(C(=O)Nc3ccccc3N)cc2)cc1	16 µM	> 100 µM	6.19 µM	21.7 µM	18 µM	> 100 µM	21 µM	> 100 µM	15.9 µM	> 100 µM	31 µM	> 100 µM	4.8 µM	53.6 µM	32.8 µM	> 100 µM	9.42 µM	> 100 µM	6.54 µM	28.5 µM
O=c1[nH]cnc(NC2C=C(CO)C(O)C2O)c1[N+](=O)[O-] (centres undefined)		> 100 µM		> 100 µM		> 100 µM		> 100 µM		> 59.6 µM		> 100 µM		> 100 µM		> 100 µM		> 100 µM		> 100 µM
CC(C)(C)c1ccc2c(c1)S(=O)(=O)Nc1ccc(Cl)cc1NS(=O)(=O)c1cc(C(C)(C)C)ccc1OCCOCCOCCO2		> 100 µM		> 100 µM		> 100 µM		> 100 µM		> 100 µM		> 100 µM		> 100 µM		59 µM		> 100 µM		> 100 µM
Cc1cccc(C2=C/C(=C(\SS/C(C(=O)c3ccc(OCC(=O)O)c(Cl)c3Cl)=C3\C=C(c4cccc(C)c4)SS3)C(=O)c3ccc(OCC(=O)O)c(Cl)c3Cl)SS2)c1		35.6 µM		47.8 µM		> 100 µM		38.7 µM		18 µM		44.8 µM		32.2 µM		> 83.5 µM		50.8 µM		49.4 µM
CCC1CN2CCc3cc(OC)c(OC)cc3C2CC1CC1c2cc(OC)c(OC)cc2CCN1C(=O)C1CCCN1 (centres undefined)		96.7 µM		31.3 µM		58.6 µM		> 100 µM		72.4 µM		71.7 µM		47.4 µM		> 100 µM		90 µM		56.6 µM
COc1cccc(/C=N/[N-]C(=O)c2ccncc2)c1[O-].COc1cccc(/C=N/[N-]C(=O)c2ccncc2)c1[O-].[O]=[U](=[O])([OH2+])[OH2+]	5.01 µM	28 µM	11.6 µM	> 100 µM	12.8 µM	> 100 µM	3.93 µM	> 70 µM	4.94 µM	> 100 µM	9.59 µM	> 90.4 µM	3.45 µM	20 µM	12.9 µM	62.6 µM	3.08 µM	> 100 µM	21.5 µM	47.7 µM
N[C@H](CCC(=O)N[C@@H](Cc1c[nH]c2ccccc12)C(=O)O)C(=O)O	> 100 µM	> 100 µM	> 100 µM	> 100 µM	> 100 µM	> 100 µM	> 100 µM	> 100 µM	> 100 µM	> 100 µM	> 100 µM	> 100 µM	> 100 µM	> 100 µM	> 100 µM	> 100 µM	> 100 µM	> 100 µM	> 100 µM	> 100 µM
CC(C)c1[nH]nc2c1N=C(c1ccccc1Cl)c1cc([N+](=O)[O-])ccc1N2	5.09 µM	16.1 µM	5.33 µM	16.2 µM	6.91 µM	> 19.1 µM	7.24 µM	> 25 µM	5 µM	> 17.5 µM	9.46 µM	24.4 µM	5.46 µM	> 18.5 µM	1.31 µM	> 17.6 µM	4.68 µM	13.1 µM	4.53 µM	9.37 µM
O=C1CCCN1c1ccccc1I(=O)=O	> 100 µM	> 100 µM	> 100 µM	> 100 µM	> 100 µM	> 100 µM	> 100 µM	> 100 µM	> 100 µM	> 100 µM	> 100 µM	> 100 µM	> 100 µM	> 100 µM	> 100 µM	> 100 µM	> 100 µM	> 100 µM	> 100 µM	> 100 µM
CCc1ccc2c(c1)C(=O)c1c-2n(CCCN=[N+]=[N-])c(=O)c2cc([N+](=O)[O-])ccc12	> 50 µM	> 50 µM	> 50 µM	> 50 µM	> 50 µM	> 50 µM	> 50 µM	> 50 µM	> 50 µM	> 50 µM	> 50 µM	> 50 µM	> 50 µM	> 50 µM	25.5 µM	> 50 µM	> 50 µM	> 50 µM	> 50 µM	> 50 µM
NC(=O)C(=O)CC(=O)c1ccccc1NC1=CC(=O)C(=O)c2ccccc21		> 100 µM		> 55.1 µM		> 100 µM		> 100 µM		36.1 µM		> 100 µM		> 100 µM		> 100 µM		> 100 µM		> 100 µM
Nc1ccccc1C(=O)/C=C/c1c(O)ccc2ccccc12		> 100 µM		> 100 µM		> 100 µM		> 100 µM		44.9 µM		> 100 µM		> 100 µM		> 100 µM		> 100 µM		> 100 µM
c1ccc2c(c1)[nH]c1c2cc[n+]2cc3c(cc12)CCCC3		7.61 µM and 5.77 µM	1.29 µM	3.22 µM and 5.83 µM	2.67 µM	7.71 µM and 4.66 µM		6.95 µM	2.03 µM	5.05 µM and 6.75 µM	5.59 µM	25 µM and 25.5 µM	14.4 µM	30.7 µM and 33 µM	3.07 µM	12.9 µM and 35.9 µM	2.91 µM		3.48 µM	13.9 µM and > 100 µM
COc1ccc(-c2ccc3c(N4CCOC[C@@H]4C)nc(N4CCOC[C@@H]4C)nc3n2)cc1CO	0.004 µM and 0.0139 µM	0.186 µM and 0.312 µM	0.00471 µM and 0.0264 µM		0.0094 µM and 0.0254 µM	3.21 µM	0.00731 µM and 0.0394 µM	> 100 µM	0.00476 µM and 0.028 µM	> 100 µM	0.00654 µM and < 0.01 µM	0.0744 µM and 0.0607 µM	0.003 µM and < 0.01 µM	0.0758 µM and 0.0806 µM	0.0039 µM and < 0.01 µM	0.0237 µM and 0.0359 µM	0.00504 µM and 0.0334 µM	> 34.6 µM	0.00121 µM and < 0.01 µM	0.00302 µM and < 0.0234 µM
COc1ccc(-c2cnnn2-c2nonc2-n2cccc2)cc1	0.705 µM	33.3 µM	0.324 µM	13.2 µM	0.235 µM	2.89 µM	0.246 µM	5.82 µM	0.594 µM	19 µM	0.536 µM	> 92.8 µM	0.298 µM	37.6 µM	0.222 µM		0.179 µM	0.47 µM	0.183 µM	0.893 µM
Nc1cc2c(cc1Br)[nH]c(=O)c1ccccc12	5.15 µM	27.5 µM	1.46 µM	2.79 µM	5.5 µM	17.1 µM	1.8 µM	5.29 µM	1.8 µM	6.23 µM	3.61 µM	23.1 µM	2.73 µM	18.5 µM	2.66 µM	11.9 µM	2.14 µM	6.45 µM	3.91 µM	29.8 µM
CC(C)[C@H](O)C(=O)N[C@@H](C)C(=O)N[C@@H]1C(=O)N(C)CCc2ccccc21	> 100 µM	> 100 µM	> 100 µM	> 100 µM	> 100 µM	> 100 µM	> 100 µM	> 100 µM	> 100 µM	> 100 µM	> 100 µM	> 100 µM	> 100 µM	> 100 µM	> 100 µM	> 100 µM	> 100 µM	> 100 µM	> 100 µM	> 100 µM
COC(c1ccc(C(C)(C)C)cc1)(c1ccc(C(C)(C)C)cc1)c1ccc(C(C)(C)C)cc1		> 100 µM		> 100 µM		> 100 µM		> 100 µM		> 100 µM		> 100 µM		> 100 µM		> 100 µM		> 100 µM		> 100 µM
COc1ccc(C(CC(=O)c2ccc3c(c2)OCO3)c2c(O)c3ccccc3oc2=O)cc1OC (centres undefined)		> 100 µM		> 100 µM		> 100 µM		> 100 µM		> 100 µM		> 100 µM		> 100 µM		> 100 µM		> 100 µM		> 100 µM
Cc1ccccc1C1=[N+]([O-])c2ccc(Cl)cc2C1=O		30.6 µM		26.7 µM		29.4 µM		32.2 µM		20.2 µM		29.8 µM		31.2 µM		40.3 µM		7.17 µM		71.4 µM
OC(c1cc(-c2ccc(C(F)(F)F)cc2)nc(C(F)(F)F)c1)C1CCCCN1 (centres undefined)	1.73 µM and 2.56 µM	3.21 µM and 6.83 µM	1.63 µM and 1.86 µM	2.99 µM and 3.27 µM	0.53 µM	1.76 µM and 3.07 µM	1.68 µM and 2.39 µM	3.15 µM and 6.12 µM		3.13 µM and 3.07 µM	2.02 µM	3.1 µM and 4.89 µM	1.44 µM and 4.96 µM	2.85 µM and 18.3 µM	1.37 µM and 3.96 µM	2.69 µM and 10.6 µM	1.85 µM and 2.69 µM	3.28 µM and 6.76 µM	1.47 µM	2.82 µM and 6.07 µM
